Results on one compound are retold here after patent publication US20240252510A1, “COMPOSITION CONTAINING HOMOHARRINGTONINE AS ACTIVE INGREDIENT FOR PREVENTING OR TREATING MUSCLE DISEASES” (RESEARCH COOPERATION FOUNDATION OF YEUNGNAM UNIVERSITY, priority 2021, published 2024).

One data set has as its system old mice. Kind of data set: Old mouse model: body weight, dietary intake, gastrocnemius weight. It counts as in vivo, 18-month-old C57BL/6 mice. How it is done:
An 18-month-old C57BL/6 was purchased, and maintained in the same breeding environment as above the high-fat diet-induced animal model, and fed with a normal chow diet during the experiment. After adapting the old mice to the breeding environment for 1 week, they were randomly divided into a control group and an experimental group, and phosphate-buffered saline was administered to the control group and homoharringtonine (0.545 μg/g body weight) was administered to the experimental group intraperitoneally three times a week for more than 4 months.

Data set [1] has as its system animal model with lower limb fixation-induced muscular atrophy. Kind of data set: Animal model with lower limb fixation-induced muscular atrophy: body weight, dietary intake, muscle weights. It counts as in vivo, C57BL/6 male mice. The settings on record: lower limb fixation mice; 0.545 μg/g i.p. three times a week for 4 weeks; vs phosphate-buffered saline group. The protocol: 8-week-old C57BL/6 male mice were adapted to the breeding environment for 1 week and then treated with homoharringtonine for 1 week, and the left lower limb was fixed using a stapler and maintained for 3 weeks. The animal model with lower limb fixation-induced muscular atrophy is an animal model for inducing muscular atrophy by reducing a load of body weight, and induction was conducted using a skin stapler (Manipler AZ, Utsunomiya, Tochigi, Japan) according to a method of Caron et al. (A novel hindlimb immobilization procedure for studying skeletal muscular atrophy and recovery in mouse. J Appl Physiol. 2009 June; 106(6):2049-59.). The unfixed right side was used as a control group.
For a total of 4 weeks from 1 week before fixation to 3 weeks of fixation, phosphate-buffered saline was administered to the control group and homoharringtonine (0.545 μg/g body weight) was administered to the experimental group three times a week intraperitoneally.

“Also recorded” adds a separate entry of the source.

For the compound `COC(=O)C[C@](O)(CCCC(C)(C)O)C(=O)O[C@@H]1C(OC)=C[C@]23CCCN2CCc2cc4c(cc2[C@H]13)OCO4` [homoharringtonine], the body weight entry with old mice (0.545 μg/g i.p. three times a week, vs phosphate-buffered saline group) is “did not show a significant difference; also recorded: no statistically significant difference”; in data set [1] it was “no statistically significant difference”. Further, in the data set with old mice (another experimental group, 6 months of injection, vs control group), the “body weight after 6 months of administration” value is “no significant difference”.
